Assay results taken from ChEMBL document CHEMBL1201862, “PubChem BioAssay data set” (2004).
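Growth conditions: 96-well plates. Treatment: test compound, 48 hours, 5 concentrations. Analysis: linear interpolation between bracketing concentrations; unreached endpoints set to highest concentration. GI50 = concentration required for 50% inhibition of growth.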 Active and inactive are the calls of the source. Cut-off read from the data, not from the text of the source: active = GI50 up to about 1.1 µM and inactive = higher.

Experiments:
Assay in all cases: NCI anticancer screen, dose series, 48 h
SK-OV-3 = test system: SK-OV-3
Malme-3M = test system: Malme-3M
LOX IMVI = test system: LOX IMVI
NCI/ADR-RES = test system: NCI/ADR-RES
HOP-92 = test system: HOP-92
HOP-62 = test system: HOP-62
SF-295 = test system: SF-295
NCI-H522 = test system: NCI-H522
NCI-H460 = test system: NCI-H460
K562 = test system: K562
SK-MEL-2 = test system: SK-MEL-2
OVCAR-5 = test system: OVCAR-5
Hs-578T = test system: Hs-578T
SW-620 = test system: SW-620
786-0 = test system: 786-0
SR = test system: SR
PC-3 = test system: PC-3
SK-MEL-28 = test system: SK-MEL-28
CCRF-CEM = test system: CCRF-CEM
BT-549 = test system: BT-549

Row | SMILES | GI50 (SK-OV-3) | GI50 (Malme-3M) | GI50 (LOX IMVI) | GI50 (NCI/ADR-RES) | GI50 (HOP-92) | GI50 (HOP-62) | GI50 (SF-295) | GI50 (NCI-H522) | GI50 (NCI-H460) | GI50 (K562) | GI50 (SK-MEL-2) | GI50 (OVCAR-5) | GI50 (Hs-578T) | GI50 (SW-620) | GI50 (786-0) | GI50 (SR) | GI50 (PC-3) | GI50 (SK-MEL-28) | GI50 (CCRF-CEM) | GI50 (BT-549)
1 | CC(=O)ON(C(C)=O)c1ccc(-c2nc3ccccc3s2)cc1 | 31.3 µM (inactive) | 14.7 µM (inactive) | 25.5 µM (inactive) | 16.3 µM (inactive) | 34.7 µM (inactive) | 22 µM (inactive) | 30.1 µM (inactive) | 15.1 µM (inactive) | 28.4 µM (inactive) | 41 µM (inactive) | 24.8 µM (inactive) | 34.2 µM (inactive) | 21.2 µM (inactive) | 26.2 µM (inactive) | 30.2 µM (inactive) | 25.6 µM (inactive) | 50.6 µM (inactive) | 31.8 µM (inactive) | 7.35 µM (inactive) | 37.6 µM (inactive)
2 | COc1ccc2nc3ccccc3c(NCCCN(C)CCCl)c2c1 | 0.406 µM (active) | 0.449 µM (active) | 0.138 µM (active) | 0.313 µM (active) | 0.185 µM (active) | 0.959 µM (active) | 0.371 µM (active) | 0.101 µM (active) | 0.0791 µM (active) | 0.136 µM (active) | 0.557 µM (active) | 0.497 µM (active) | 0.188 µM (active) | 0.0497 µM (active) | 0.104 µM (active) | < 0.0128 µM (active) | 0.202 µM (active) | 0.521 µM (active) | 0.064 µM (active) | 1.22 µM (inactive)
3 | O=C1C[C@@H](Sc2ccccc2)C2(OCCO2)C2ON3CCCC[C@H]3[C@H]12 (stereo partly specified) | 41.5 µM (inactive) | 8.41 µM (inactive) | 2.49 µM (inactive) | 5.78 µM (inactive) | 7 µM (inactive) | 16.5 µM (inactive) | 15.9 µM (inactive) | 2.15 µM (inactive) | 9.66 µM (inactive) | 2.11 µM (inactive) | 18.1 µM (inactive) | 17.7 µM (inactive) | 10.8 µM (inactive) | 3.63 µM (inactive) | 3.53 µM (inactive) | 0.927 µM (active) | 7.36 µM (inactive) | 19.4 µM (inactive) | 0.92 µM (active) | 5.81 µM (inactive)
4 | COC(=O)/C=C1/OC(c2ccc(C)cc2C)=CC1=O | 18.7 µM (inactive) | 16.4 µM (inactive) | 6.17 µM (inactive) | 19.5 µM (inactive) | 16.6 µM (inactive) | 25.2 µM (inactive) | – | 14.1 µM (inactive) | 19 µM (inactive) | 2.81 µM (inactive) | – | 15.7 µM (inactive) | 33.4 µM (inactive) | 2.82 µM (inactive) | 11 µM (inactive) | 3.4 µM (inactive) | 17.8 µM (inactive) | 19.5 µM (inactive) | 3.42 µM (inactive) | 16.3 µM (inactive)
5 | COC(=O)NC(Cc1ccccc1)NC(C)=O (stereo unspecified) | > 100 µM (inactive) | > 100 µM (inactive) | > 100 µM (inactive) | > 100 µM (inactive) | > 100 µM (inactive) | > 100 µM (inactive) | > 100 µM (inactive) | > 100 µM (inactive) | > 100 µM (inactive) | > 100 µM (inactive) | > 100 µM (inactive) | > 100 µM (inactive) | 5.3 µM (inactive) | > 100 µM (inactive) | > 100 µM (inactive) | > 100 µM (inactive) | > 100 µM (inactive) | > 100 µM (inactive) | > 100 µM (inactive) | > 100 µM (inactive)
6 | N=c1oc2c(Cl)cc(Cl)cc2cc1C(=O)Nc1cccc2ccccc12 | 15.9 µM (inactive) | 26.3 µM (inactive) | 4.7 µM (inactive) | 4.93 µM (inactive) | 15.3 µM (inactive) | 7.98 µM (inactive) | 18.7 µM (inactive) | 8.17 µM (inactive) | 5.01 µM (inactive) | 13.3 µM (inactive) | – | 21.7 µM (inactive) | 7.94 µM (inactive) | 3.62 µM (inactive) | 5.71 µM (inactive) | 12.4 µM (inactive) | 24.2 µM (inactive) | > 80.9 µM (inactive) | 3.57 µM (inactive) | 30.1 µM (inactive)
7 | NC(CCC(=O)O)(CCC(=O)O)CCC(=O)O | > 100 µM (inactive) | > 100 µM (inactive) | – | > 100 µM (inactive) | > 100 µM (inactive) | – | > 100 µM (inactive) | 11.5 µM (inactive) | > 100 µM (inactive) | > 100 µM (inactive) | > 100 µM (inactive) | > 100 µM (inactive) | > 100 µM (inactive) | > 100 µM (inactive) | > 100 µM (inactive) | > 100 µM (inactive) | > 100 µM (inactive) | – | > 100 µM (inactive) | > 100 µM (inactive)
8 | COc1ccc(CNc2ccn(C3OC(CO)C(O)C3O)c(=O)n2)cc1 (stereo unspecified) | > 100 µM (inactive) | > 100 µM (inactive) | > 100 µM (inactive) | > 100 µM (inactive) | 47.1 µM (inactive) | > 100 µM (inactive) | > 100 µM (inactive) | 70.1 µM (inactive) | 78.7 µM (inactive) | 34.8 µM (inactive) | > 100 µM (inactive) | > 100 µM (inactive) | > 100 µM (inactive) | > 100 µM (inactive) | > 100 µM (inactive) | > 100 µM (inactive) | > 100 µM (inactive) | > 100 µM (inactive) | 31.3 µM (inactive) | 62.5 µM (inactive)
9 | CC(=O)Nc1nc(C)c(S(=O)(=O)NC(=O)N2c3ccccc3CCc3ccccc32)s1 | > 100 µM (inactive) | > 100 µM (inactive) | > 100 µM (inactive) | > 100 µM (inactive) | > 100 µM (inactive) | > 100 µM (inactive) | > 100 µM (inactive) | > 100 µM (inactive) | > 100 µM (inactive) | > 100 µM (inactive) | > 100 µM (inactive) | > 100 µM (inactive) | > 100 µM (inactive) | > 100 µM (inactive) | > 100 µM (inactive) | > 100 µM (inactive) | > 100 µM (inactive) | > 100 µM (inactive) | 44.6 µM (inactive) | > 100 µM (inactive)
10 | Cn1c(-c2ccccc2)cc2c3ccsc3c3ccsc3c21 | > 100 µM (inactive) | > 100 µM (inactive) | > 100 µM (inactive) | > 100 µM (inactive) | > 100 µM (inactive) | > 100 µM (inactive) | > 100 µM (inactive) | > 100 µM (inactive) | 53.1 µM (inactive) | – | > 100 µM (inactive) | > 100 µM (inactive) | > 100 µM (inactive) | > 100 µM (inactive) | 79.3 µM (inactive) | 39.1 µM (inactive) | > 100 µM (inactive) | > 100 µM (inactive) | – | > 100 µM (inactive)
11 | COC(=O)C1=Nc2c(C)nn(-c3ccccc3)c2N=C(c2ccc([N+](=O)[O-])cc2)C1 | > 10 µM (inactive) | > 10 µM (inactive) | > 10 µM (inactive) | > 10 µM (inactive) | > 10 µM (inactive) | > 10 µM (inactive) | > 10 µM (inactive) | > 10 µM (inactive) | – | > 10 µM (inactive) | – | 5.98 µM (inactive) | > 10 µM (inactive) | > 10 µM (inactive) | > 10 µM (inactive) | > 10 µM (inactive) | > 10 µM (inactive) | > 10 µM (inactive) | > 10 µM (inactive) | > 10 µM (inactive)
12 | COC(=O)C1CC23CCCN4CCC5(c6ccccc6N(C=O)C15CC2)C43 (stereo unspecified) | > 100 µM (inactive) | > 100 µM (inactive) | > 100 µM (inactive) | > 100 µM (inactive) | > 100 µM (inactive) | > 100 µM (inactive) | > 100 µM (inactive) | > 100 µM (inactive) | > 100 µM (inactive) | – | > 100 µM (inactive) | > 100 µM (inactive) | > 100 µM (inactive) | > 100 µM (inactive) | > 100 µM (inactive) | > 100 µM (inactive) | > 100 µM (inactive) | > 100 µM (inactive) | > 100 µM (inactive) | > 100 µM (inactive)
13 | CC(C)(C)OC(=O)NC(CCCCNC(=O)OCc1ccccc1)C(=O)NCCNc1ccc(NCCNC(=O)C(CCCCNC(=O)OCc2ccccc2)NC(=O)OC(C)(C)C)c2c1C(=O)c1ccccc1C2=O (stereo unspecified) | 25.4 µM (inactive) | > 86.3 µM (inactive) | > 90.8 µM (inactive) | 19.8 µM (inactive) | > 42.3 µM (inactive) | 23.9 µM (inactive) | > 93.8 µM (inactive) | 10.3 µM (inactive) | > 100 µM (inactive) | – | 6.44 µM (inactive) | > 100 µM (inactive) | 4.68 µM (inactive) | 70.6 µM (inactive) | > 56.9 µM (inactive) | 24.3 µM (inactive) | > 100 µM (inactive) | 14.7 µM (inactive) | – | > 71 µM (inactive)
14 | CCOC(=O)CN1C(=O)c2c(c(C)n(-c3ccccc3)c2C)C1=O | > 100 µM (inactive) | > 100 µM (inactive) | – | > 100 µM (inactive) | > 100 µM (inactive) | 36 µM (inactive) | > 100 µM (inactive) | > 100 µM (inactive) | > 100 µM (inactive) | > 100 µM (inactive) | > 100 µM (inactive) | > 100 µM (inactive) | > 100 µM (inactive) | > 100 µM (inactive) | > 100 µM (inactive) | > 100 µM (inactive) | > 100 µM (inactive) | > 100 µM (inactive) | > 100 µM (inactive) | > 100 µM (inactive)
